Data from ChEMBL document CHEMBL5291721, “A preclinical secondary pharmacology resource illuminates target-adverse drug reaction associations of marketed drugs” (Nat Commun, 2023).

What was measured:
[1] = target: T1, Alpha-2C adrenergic receptor (Homo sapiens, UniProt P18825); format: functional
T1 sequence (P18825 whole entry): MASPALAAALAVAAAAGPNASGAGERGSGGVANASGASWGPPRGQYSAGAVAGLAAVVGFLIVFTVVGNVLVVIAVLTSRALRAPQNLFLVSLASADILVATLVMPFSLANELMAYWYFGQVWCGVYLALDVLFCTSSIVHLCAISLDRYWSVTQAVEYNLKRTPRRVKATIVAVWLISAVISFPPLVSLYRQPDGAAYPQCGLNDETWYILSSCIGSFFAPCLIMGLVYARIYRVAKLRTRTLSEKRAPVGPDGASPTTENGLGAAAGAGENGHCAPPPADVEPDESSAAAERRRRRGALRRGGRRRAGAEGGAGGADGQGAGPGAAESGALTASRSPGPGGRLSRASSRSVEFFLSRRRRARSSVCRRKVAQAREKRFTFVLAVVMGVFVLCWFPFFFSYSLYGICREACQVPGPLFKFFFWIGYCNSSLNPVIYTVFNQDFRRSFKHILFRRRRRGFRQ

[2] = target: T2, Alpha-2A adrenergic receptor (Homo sapiens, UniProt P08913); format: functional, cell-based
T2 sequence (P08913 whole entry): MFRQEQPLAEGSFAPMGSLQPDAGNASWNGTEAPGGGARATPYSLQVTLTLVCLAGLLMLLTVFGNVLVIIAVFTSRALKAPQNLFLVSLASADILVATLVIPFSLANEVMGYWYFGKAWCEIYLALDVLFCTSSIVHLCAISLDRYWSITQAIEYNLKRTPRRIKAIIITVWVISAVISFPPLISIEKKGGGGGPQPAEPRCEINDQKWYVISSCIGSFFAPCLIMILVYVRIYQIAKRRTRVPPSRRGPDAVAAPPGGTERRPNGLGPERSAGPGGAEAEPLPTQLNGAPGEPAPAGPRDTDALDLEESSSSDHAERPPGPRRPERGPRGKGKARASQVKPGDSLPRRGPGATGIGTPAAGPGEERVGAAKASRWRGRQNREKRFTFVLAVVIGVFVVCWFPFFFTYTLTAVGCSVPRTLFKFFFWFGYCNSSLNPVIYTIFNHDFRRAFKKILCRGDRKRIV

D(1A) dopamine receptor = D(1A) dopamine receptor (Homo sapiens, UniProt P21728); format: functional, cell-based
Sequence of D(1A) dopamine receptor (P21728 whole entry): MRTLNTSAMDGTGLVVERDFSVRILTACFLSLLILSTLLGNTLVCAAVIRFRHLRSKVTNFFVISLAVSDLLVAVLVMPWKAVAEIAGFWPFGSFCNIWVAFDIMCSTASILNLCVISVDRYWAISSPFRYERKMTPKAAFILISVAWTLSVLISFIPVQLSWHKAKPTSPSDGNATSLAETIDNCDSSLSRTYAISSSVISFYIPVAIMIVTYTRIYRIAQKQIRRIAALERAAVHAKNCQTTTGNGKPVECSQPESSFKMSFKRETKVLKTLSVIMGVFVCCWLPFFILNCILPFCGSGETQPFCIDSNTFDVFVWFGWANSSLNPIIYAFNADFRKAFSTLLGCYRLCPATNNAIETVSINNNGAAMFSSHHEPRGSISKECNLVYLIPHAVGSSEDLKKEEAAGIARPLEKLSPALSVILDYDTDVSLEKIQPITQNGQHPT

[3] = target: T3, Cholecystokinin receptor type A (Homo sapiens, UniProt P32238)
T3 sequence (P32238 whole entry): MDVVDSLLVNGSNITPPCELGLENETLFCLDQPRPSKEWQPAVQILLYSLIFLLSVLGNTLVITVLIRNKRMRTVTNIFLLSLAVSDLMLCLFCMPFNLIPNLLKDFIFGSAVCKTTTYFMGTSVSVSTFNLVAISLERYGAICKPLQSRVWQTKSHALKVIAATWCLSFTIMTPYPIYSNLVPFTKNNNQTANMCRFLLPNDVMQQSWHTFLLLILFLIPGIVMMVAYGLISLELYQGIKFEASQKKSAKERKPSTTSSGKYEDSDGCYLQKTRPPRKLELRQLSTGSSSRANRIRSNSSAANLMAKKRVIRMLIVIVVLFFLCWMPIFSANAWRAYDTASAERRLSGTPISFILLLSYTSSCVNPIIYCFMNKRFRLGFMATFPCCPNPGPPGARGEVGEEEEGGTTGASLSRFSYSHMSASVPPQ

B2 bradykinin receptor = target: T4, B2 bradykinin receptor (Homo sapiens, UniProt P30411)
T4 sequence (P30411 whole entry): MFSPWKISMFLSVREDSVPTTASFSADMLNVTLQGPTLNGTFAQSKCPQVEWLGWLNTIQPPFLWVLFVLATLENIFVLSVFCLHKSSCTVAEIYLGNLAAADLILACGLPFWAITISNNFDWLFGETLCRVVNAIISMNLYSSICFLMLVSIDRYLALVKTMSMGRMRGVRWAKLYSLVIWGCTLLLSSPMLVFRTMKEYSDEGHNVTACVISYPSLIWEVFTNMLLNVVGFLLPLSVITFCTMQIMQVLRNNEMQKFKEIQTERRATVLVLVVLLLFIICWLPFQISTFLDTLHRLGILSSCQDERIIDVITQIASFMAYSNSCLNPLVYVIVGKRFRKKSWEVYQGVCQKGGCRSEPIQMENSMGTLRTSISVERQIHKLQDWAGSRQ

Melanocortin receptor 4 = Melanocortin receptor 4 (Homo sapiens, UniProt P32245)
Sequence of Melanocortin receptor 4 (P32245 whole entry): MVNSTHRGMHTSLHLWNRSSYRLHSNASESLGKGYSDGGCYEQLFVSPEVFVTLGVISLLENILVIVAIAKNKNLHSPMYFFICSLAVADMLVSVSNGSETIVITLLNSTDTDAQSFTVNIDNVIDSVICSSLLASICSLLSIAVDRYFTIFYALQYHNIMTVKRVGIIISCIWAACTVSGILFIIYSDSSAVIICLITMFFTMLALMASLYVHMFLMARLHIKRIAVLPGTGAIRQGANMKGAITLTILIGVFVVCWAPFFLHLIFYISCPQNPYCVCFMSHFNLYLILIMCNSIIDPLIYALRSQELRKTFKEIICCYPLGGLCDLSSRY

[4] = target: T5, 5-hydroxytryptamine receptor 1A (Homo sapiens, UniProt P08908); format: functional, cell-based
T5 sequence (P08908 whole entry): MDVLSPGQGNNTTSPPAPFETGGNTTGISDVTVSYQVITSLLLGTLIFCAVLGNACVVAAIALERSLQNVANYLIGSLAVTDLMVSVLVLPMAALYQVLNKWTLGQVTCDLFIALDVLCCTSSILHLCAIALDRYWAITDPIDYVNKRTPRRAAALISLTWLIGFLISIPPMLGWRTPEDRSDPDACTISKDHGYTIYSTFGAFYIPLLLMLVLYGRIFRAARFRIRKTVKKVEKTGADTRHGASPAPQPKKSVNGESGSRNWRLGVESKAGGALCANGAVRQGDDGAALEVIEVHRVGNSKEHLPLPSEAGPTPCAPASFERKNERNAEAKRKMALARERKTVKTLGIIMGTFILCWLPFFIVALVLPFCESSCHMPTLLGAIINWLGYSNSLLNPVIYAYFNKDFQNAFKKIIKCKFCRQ

[5] = target: T6, Neuropeptide Y receptor type 1 (Homo sapiens, UniProt P25929)
T6 sequence (P25929 whole entry): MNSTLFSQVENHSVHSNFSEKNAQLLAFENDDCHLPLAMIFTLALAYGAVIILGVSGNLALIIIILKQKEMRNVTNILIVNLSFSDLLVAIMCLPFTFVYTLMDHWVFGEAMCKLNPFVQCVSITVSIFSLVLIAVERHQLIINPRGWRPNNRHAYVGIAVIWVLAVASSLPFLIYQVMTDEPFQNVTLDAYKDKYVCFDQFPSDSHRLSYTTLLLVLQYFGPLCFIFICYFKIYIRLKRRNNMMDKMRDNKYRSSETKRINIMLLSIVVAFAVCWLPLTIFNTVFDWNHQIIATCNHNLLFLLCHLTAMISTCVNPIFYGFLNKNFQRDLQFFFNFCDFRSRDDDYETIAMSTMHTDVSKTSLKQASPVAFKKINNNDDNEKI

Cannabinoid receptor 1 = Cannabinoid receptor 1 (Homo sapiens, UniProt P21554); format: functional, cell-based
Sequence of Cannabinoid receptor 1 (P21554 whole entry): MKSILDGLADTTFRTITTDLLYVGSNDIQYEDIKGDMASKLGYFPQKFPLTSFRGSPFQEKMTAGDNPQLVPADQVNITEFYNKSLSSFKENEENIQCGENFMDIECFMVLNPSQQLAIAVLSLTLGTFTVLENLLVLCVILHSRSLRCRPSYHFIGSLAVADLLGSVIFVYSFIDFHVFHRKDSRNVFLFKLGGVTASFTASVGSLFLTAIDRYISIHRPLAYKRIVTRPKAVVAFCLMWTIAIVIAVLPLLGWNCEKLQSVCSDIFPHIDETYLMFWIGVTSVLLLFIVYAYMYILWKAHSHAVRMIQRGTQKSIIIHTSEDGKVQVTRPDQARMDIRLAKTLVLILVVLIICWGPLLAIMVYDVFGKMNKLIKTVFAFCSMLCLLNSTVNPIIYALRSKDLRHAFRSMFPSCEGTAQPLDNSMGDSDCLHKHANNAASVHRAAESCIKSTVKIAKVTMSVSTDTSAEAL
Note: assay procedure not described here.

| Compound | AC50 [1] [µM] | AC50 [2] [µM] | AC50 (D(1A) dopamine receptor) [µM] | AC50 [3] [µM] | AC50 (B2 bradykinin receptor) [µM] | AC50 (Melanocortin receptor 4) [µM] | AC50 [4] [µM] | AC50 ([5]; read-out: AC50) [µM] | AC50 (Cannabinoid receptor 1) [µM] | AC50 [5] [µM] |
| --- | --- | --- | --- | --- | --- | --- | --- | --- | --- | --- |
| CC(N)C12CC3CC(CC(C3)C1)C2 (stereo not given) [RIMANTADINE] | > 10 | > 10 | > 10 | > 10 | > 10 | > 10 | > 10 | > 10 | – | – |
| CC(C)c1nc(N(C)S(C)(=O)=O)nc(-c2ccc(F)cc2)c1/C=C/[C@@H](O)C[C@@H](O)CC(=O)O [ROSUVASTATIN] | > 30 | > 30 | > 30 | > 30 | > 30 | – | > 30 | > 30 | > 30 | – |
| CC(S)C(=O)NCC(=O)O (stereo not given) [TIOPRONIN] | > 30 | > 30 | > 30 | > 30 | – | – | > 30 | – | > 30 | – |
| OC[C@H]1O[C@@](CO)(O[C@H]2O[C@H](CO)[C@@H](O)[C@H](O)[C@H]2O)[C@@H](O)[C@@H]1O [SUCROSE] | – | > 30 | > 30 | > 30 | > 30 | – | > 30 | > 30 | > 30 | – |
| CCN(CC)CCNC(=O)c1c(C)[nH]c(/C=C2\C(=O)Nc3ccc(F)cc32)c1C [SUNITINIB] | 1.77 | 24 | – | 6.7 | 2.5 | – | > 30 | – | > 30 | 6.9 |
| C#C[C@]1(O)CC[C@H]2[C@@H]3CCC4=CC(=O)CC[C@@H]4[C@H]3C(=C)C[C@@]21CC [ETONOGESTREL] | > 30 | > 30 | > 30 | – | – | – | > 30 | – | > 30 | – |
| CN1C[C@H](C(=O)N[C@]2(C)O[C@@]3(O)[C@@H]4CCCN4C(=O)[C@H](Cc4ccccc4)N3C2=O)C=C2c3cccc4[nH]cc(c34)C[C@H]21 [ERGOTAMINE] | 0.14 | 0.3 | 0.59 | > 30 | – | – | 0.22 | – | > 30 | – |
| CN1C(C(=O)Nc2ccccn2)=C(O)c2ccccc2S1(=O)=O [PIROXICAM] | > 30 | > 10 | > 10 | > 10 | > 10 | > 10 | > 10 | > 10 | – | – |
| C[C@H](CCC(=O)O)[C@H]1CC[C@H]2[C@@H]3[C@@H](O)C[C@@H]4C[C@H](O)CC[C@]4(C)[C@H]3CC[C@]12C [URSODIOL] | > 30 | > 30 | > 30 | > 30 | – | – | > 30 | – | > 30 | – |
| CN(C)CCC[C@@]1(c2ccc(F)cc2)OCc2cc(C#N)ccc21 [ESCITALOPRAM] | > 30 | > 30 | – | > 30 | > 30 | – | > 30 | > 30 | > 30 | – |
| C[C@@H](NCCCc1cccc(C(F)(F)F)c1)c1cccc2ccccc12 | 0.83 | > 30 | > 30 | > 30 | > 3 | – | > 30 | > 10 | > 30 | – |
| CCCN(CCC)C(=O)Cc1c(-c2ccc(Cl)cc2)nc2ccc(Cl)cn12 [ALPIDEM] | > 30 | > 30 | > 30 | > 30 | > 30 | > 30 | > 30 | > 30 | – | – |
| CC(=O)O[C@]1(C(C)=O)CC[C@H]2[C@@H]3C=C(C)C4=CC(=O)CC[C@@H]4[C@H]3CC[C@@]21C [NOMEGESTROL ACETATE] | > 30 | > 30 | > 30 | – | – | – | > 30 | – | > 30 | – |
| CCCC(CCC)C(=O)O [VALPROIC ACID] | > 10 | > 10 | > 10 | > 30 | > 30 | > 30 | > 10 | > 30 | – | – |
| CC(C)(C)NCC(O)c1cc(O)cc(O)c1 (stereo not given) [TERBUTALINE] | – | – | – | > 30 | > 30 | – | – | > 30 | – | – |
| CC(C(=O)O)c1ccc2c(c1)[nH]c1ccc(Cl)cc12 (stereo not given) [CARPROFEN] | > 10 | > 10 | > 10 | > 30 | > 30 | > 10 | > 10 | > 10 | – | – |
| COc1cc2nccc(Oc3ccc(NC(=O)C4(C(=O)Nc5ccc(F)cc5)CC4)cc3)c2cc1OC [CABOZANTINIB] | 26 | 19 | > 30 | > 30 | – | – | > 30 | – | > 30 | – |
| CN(C)CC[C@@H](c1ccc(Cl)cc1)c1ccccn1 [DEXCHLORPHENIRAMINE] | > 30 | > 30 | > 30 | > 30 | > 30 | – | > 30 | > 30 | > 30 | – |
| CN(CC1(C)CCCO1)S(=O)(=O)c1ccc(Cl)c(S(N)(=O)=O)c1 (stereo not given) [MEFRUSIDE] | > 30 | > 30 | > 30 | – | – | – | – | – | > 30 | – |
| COc1ccc(CC2c3cc(OC)c(OC)cc3CC[N+]2(C)CCC(=O)OCCCCCOC(=O)CC[N+]2(C)CCc3cc(OC)c(OC)cc3C2Cc2ccc(OC)c(OC)c2)cc1OC (stereo not given) | 2.7 | 3.6 | > 30 | > 30 | > 30 | > 30 | > 30 | > 30 | – | – |
| CCN1CCN(Cc2ccc(Nc3ncc(F)c(-c4cc(F)c5nc(C)n(C(C)C)c5c4)n3)nc2)CC1 [ABEMACICLIB] | > 30 | > 30 | > 30 | > 30 | – | – | > 30 | – | > 30 | – |
